# “Also recorded” adds a separate entry of the source. Marks after values point to notes of the source that are not given here.
# What was measured:
# [1] = system: SLE-afflicted mice; details: cited from earlier work
# [2] = system: OX40L; assay: Immunostaining of kidney sections for OX40L expression; type: in vivo; details: 6 edratide-treated mice; intense staining in all 5 vehicle-treated mice
# Procedure: Immunohistochemistry of kidney sections. Frozen cryostat sections (6 μm) were air-dried and fixed in acetone. For detection of OX40 ligand (OX40L) expression, sections were incubated for 16 hours at room temperature with anti-OX40L monoclonal antibody (M−20; Santa Cruz Biotechnology, Santa Cruz, Calif.). FITC-conjugated mouse anti-goat IgG (Jackson ImmunoResearch Laboratories, West Grove, Pa.) was then added.
# Immunostaining of kidneys of (NZB×NZW)F1 mice for OX40L expression. […] Immunohistological analysis of kidney sections from 5 SLE-afflicted vehicle-treated or 6 edratide-treated mice and 3 disease-free young mice was performed.
# [3] = system: (NZB×NZW)F1 mice with established SLE; assay: Immunohistology of kidney sections for immune-complex deposits; type: in vivo; details: graded 0 none, 1 low, 2 moderate, 3 high intensity, s.c. once a week for 10 weeks
# Procedure: (§1) Treatment of (NZB×NZW)F1 mice with edratide. Female mice aged 6-7 months, with established SLE, were divided into groups (8-10 mice per group) and injected subcutaneously (s.c.) with edratide (25-50 μg) or vehicle only (Captisol®) once a week for 10 weeks. Proteinuria and anti-double stranded DNA (dsDNA) autoantibodies were monitored throughout this period.
# Immunohistology. For detection of immune-complex deposits, frozen kidney sections (6 μm) were air-dried and fixed in acetone. Sections were incubated with FITC-conjugated goat anti-mouse IgG (gamma-chain specific; Jackson ImmunoResearch Laboratories, Avondale, Pa.) for 30 minutes and were extensively washed with PBS. The intensity of immune-complex deposits was graded on a […]: 0, no deposits; 1, low-intensity deposits; 2, moderate-intensity deposits; 3, high-intensity deposits.
# (§2) Treatment with edratide ameliorates disease manifestations in (NZB×NZW)F1 mice with established SLE. SLE-afflicted female mice, aged 6-7 months, were treated with 10 weekly s.c. injections of edratide or vehicle (Captisol®) and followed for disease manifestations. One week after the treatment ended the mice were killed and their kidneys were evaluated for immune-complex deposits. The results of a representative experiment are presented in Table 1 below, which summarizes some clinical manifestations of the experimental mice.
# [4] = system: (NZB×NZW)F1 mice with established SLE; assay: Proteinuria, semi-quantitative Albustix test; type: in vivo; details: at the end of the experiment; s.c. once a week for 10 weeks
# Procedure: as §1
# Proteinuria. Proteinuria was measured by a standard semi-quantitative test, using an Albustix kit (Bayer Diagnostics, Newbury, UK).
# as §2
# [5] = system: splenocytes of SLE-afflicted (NZB×NZW)F1 mice; assay: Affymetrix microarray of RNA from splenocytes of treated mice; type: in vivo
# Source text: Preparation of RNA. Using the RNA/DNA/protein isolation reagent (TRI Reagent®; Molecular Research Center, Cincinnati, Ohio), total RNA was isolated from spleen cells that were pooled (n=2-4 mice) from each experimental group of (NZB×NZW)F1 mice.
# Microarray and statistics. RNA samples were hybridized to the mouse genome AffymetrixGeneChip® 430A2 (Affymetrix, Santa Clara, Calif.) array. R packages were used from the Bioconductor project (23). Initially, probe signal summarization, normalization, and background subtraction were performed using Robust Multi-array Averaging (RMA) (24) in affy package with default parameters. Then, the statistical test for differentially expressed genes was performed using Linear Models for Microarray (LIMMA) package (25), which allows for a better variance estimation by calculating the moderated t-statistic using empirical Bayesian techniques. Finally, genes were selected that were statistically significant with P value <0.05 in each biological comparison of interest separately.
# Microarray analysis of immunocytes from SLE-afflicted mice. In an attempt to identify gene expression profiles characteristic of SLE and to gain an insight into the modified profile induced by edratide, DNA microarray technology was used on RNA preparations from splenocytes of SLE-afflicted (NZB×NZW)F1 mice treated with edratide or with vehicle only (as described above and in Table 1). […] Three independent in vivo experiments were successfully performed. The RNA obtained in each experiment was hybridized independently on the Affymetrix chips.
# [6] = system: (NZB×NZW)F1 mice with established SLE; assay: ELISA for dsDNA-specific antibodies in sera of treated SLE-afflicted mice; type: in vivo; details: bled after termination of treatment, s.c. once a week for 10 weeks
# Procedure: as §1
# Enzyme-linked immunosorbent assay (ELISA) for the detection of dsDNA-specific antibodies. Anti-dsDNA-specific antibodies were determined using lambda phage dsDNA as previously described (5).
# as §2
# [7] = system: spleen cells of SLE-afflicted (NZB×NZW)F1 mice; assay: Real-time RT-PCR of spleen cell mRNA from treated mice; type: in vivo; details: normalized to β-actin
# Procedure: Real-time RT-PCR. Messenger RNA (mRNA) was analyzed by quantitative real-time RT-PCR using LightCycler (Roche Diagnostics, Mannheim, Germany). Total RNA was isolated from spleen cells pooled from each treatment group (n=2−4) of (NZB×NZW)F1 mice. To prepare cDNA, RNA was reverse-transcribed using Moloney murine leukemia virus (M-MLV) reverse transcriptase (Promega, Madison, Wis.). The resulting cDNA was subjected to real-time RT-PCR according to the manufacturer's instructions. Briefly, the reaction volume (20 μl) contained 3 mM MgCl2, LightCycler hot start DNA SYBR Green I mix (Roche), specific primer pairs, and 5 μl of cDNA. Conditions for PCR were as follows: 10 minutes at 95° C. followed by 35-50 cycles of 15 seconds at 95° C., 15 seconds at 60° C., and 15 seconds at 72° C. Primer sequences (forward and reverse, respectively) were used as follows:
# β-actin levels were used for normalization in calculating the expression levels of all other genes.
# Real-time RT-PCR analysis. […] These genes were chosen because they reportedly meet at least one of the following three criteria: involvement in SLE, functioning in lymphocytes, and expression in the kidney.
# [8] = SLE-afflicted mice, reference 5
sequence,measurement,setting,value
GYYWSWIRQPPGKGEEWIG (hCDR (Edratide) synthetic peptide) [synthetic peptide based on the CDR1 of the human monoclonal anti-DNA antibody bearing the common idiotype 16/6Id],Kidney disease,"[1]; (NZB×NZW)F1 mice, WO 02/067848",reduced kidney disease
same,Immunosuppressive cytokine TGFβ,[1]; [8],up-regulated
same,"Secretion and expression of pathogenic cytokines (IFNγ, IL-1β, TNFα, IL-10)",[1]; [8],reduced secretion and expression
same,OX40L expression in kidney sections (immunostaining),[2],"very weak (in 2 mice and 1 mouse, respectively) or undetectable (in 4 and 2 mice, respectively); also recorded: down-regulated"
same,Intensity of ICD (immune-complex deposits),[3],1.33 ± 0.36
same,Proteinuria,[4],1.92 ± 0.96 g/L
same,"Fold difference in expression, edratide-treated (hCDR1) vs SLE mice: 1190003K14Rik","[5]; gene 1190003K14Rik, splenocytes",2.4 fold
same,"Fold difference in expression, edratide-treated vs SLE mice: 2700022B06Rik","[5]; gene 2700022B06Rik, not statistically significant",−1.4^† fold
same,"Fold difference in expression, edratide-treated vs SLE mice: 5830484A20Rik","[5]; gene 5830484A20Rik, splenocytes, negative = reduction in signal",−3.0 fold
same,"Fold difference in expression, edratide-treated vs SLE mice: A130040M12Rik","[5]; gene A130040M12Rik, not statistically significant",1.3^† fold
same,"Fold difference in expression, edratide-treated vs SLE mice: Ass1","[5]; gene Ass1, not statistically significant",−1.2^† fold
same,"Fold difference in expression, edratide-treated (hCDR1) vs SLE mice: Camp","[5]; gene Camp, splenocytes",2.8 fold
same,"Fold difference in expression, edratide-treated vs SLE mice: Cd8b1","[5]; gene Cd8b1, not statistically significant",2.0^† fold
same,"Fold difference in expression, edratide-treated (hCDR1) vs SLE mice: Ctsg","[5]; gene Ctsg, not statistically significant",1.2^† fold
same,"Fold difference in expression, edratide-treated vs SLE mice: Cyp11a1","[5]; gene Cyp11a1, not statistically significant",−1.8^† fold
same,"Fold difference in expression, edratide-treated vs SLE mice: Dhx9","[5]; gene Dhx9, not statistically significant",−1.0^† fold
same,"Fold difference in expression, edratide-treated vs SLE mice: Fzd6","[5]; gene Fzd6, splenocytes, negative = reduction in signal",−2.9 fold
same,"Fold difference in expression, edratide-treated vs SLE mice: Gpr132","[5]; gene Gpr132, not statistically significant",−1.1^† fold
same,"Fold difference in expression, edratide-treated vs SLE mice: Hdgfrp3","[5]; gene Hdgfrp3, not statistically significant",−1.7^† fold
same,"Fold difference in expression, edratide-treated vs SLE mice: IL5Rα","[5]; gene IL5Rα, splenocytes, negative = reduction in signal",−2.0 fold
same,"Fold difference in expression, edratide-treated vs SLE mice: LOC 545340","[5]; gene LOC 545340, splenocytes, negative = reduction in signal",−2.7 fold
same,"Fold difference in expression, edratide-treated (hCDR1) vs SLE mice: Lcn","[5]; gene Lcn (Lipocalin 2), splenocytes",2.9 fold
same,"Fold difference in expression, edratide-treated vs SLE mice: Lmo7","[5]; gene Lmo7, splenocytes, negative = reduction in signal",−2.8 fold
same,"Fold difference in expression, edratide-treated (hCDR1) vs SLE mice: Ltf","[5]; gene Ltf, splenocytes",3.2 fold
same,"Fold difference in expression, edratide-treated (hCDR1) vs SLE mice: Mpo","[5]; gene Mpo, not statistically significant",1.5^† fold
same,"Fold difference in expression, edratide-treated (hCDR1) vs SLE mice: Ngp","[5]; gene Ngp, splenocytes",2.5 fold
same,"Fold difference in expression, edratide-treated vs SLE mice: Nid1","[5]; gene Nid1, splenocytes, negative = reduction in signal",−2.4 fold
same,"Fold difference in expression, edratide-treated vs SLE mice: Pigr","[5]; gene Pigr, not statistically significant",−1.4^† fold
same,"Fold difference in expression, edratide-treated (hCDR1) vs SLE mice: Prtn3","[5]; gene Prtn3, not statistically significant",1.3^† fold
same,"Fold difference in expression, edratide-treated vs SLE mice: Pstpip2 (second entry)","[5]; gene Pstpip2, entry with SLE fold 2.0, not statistically significant",−1.5^† fold
same,"Fold difference in expression, edratide-treated vs SLE mice: Pstpip2 (first entry)","[5]; gene Pstpip2, entry with SLE fold 2.2, not statistically significant",−1.9^† fold
same,"Fold difference in expression, edratide-treated vs SLE mice: Rnf184","[5]; gene Rnf184, not statistically significant",1.2^† fold
same,"Fold difference in expression, edratide-treated (hCDR1) vs SLE mice: S100a8","[5]; gene S100a8, splenocytes",2.4 fold
same,"Fold difference in expression, edratide-treated (hCDR1) vs SLE mice: S100a9","[5]; gene S100a9, splenocytes",2.4 fold
same,"Fold difference in expression, edratide-treated (hCDR1) vs SLE mice: Slfn","[5]; gene Slfn (Schlafen 4), splenocytes",2.7 fold
same,"Fold difference in expression, edratide-treated (hCDR1) vs SLE mice: Tfpi","[5]; gene Tfpi, splenocytes",2.2 fold
same,"Fold difference in expression, edratide-treated (hCDR1) vs SLE mice: Thbs1","[5]; gene Thbs1, not statistically significant",1.5^† fold
same,"Fold difference in expression, edratide-treated vs SLE mice: Tnfsf4","[5]; gene Tnfsf4, splenocytes, negative = reduction in signal",−2.5 fold
same,"Fold difference in expression, edratide-treated vs SLE mice: Zbtb20","[5]; gene Zbtb20, splenocytes, negative = reduction in signal",−2.2 fold
same,"Fold difference in expression, edratide-treated vs SLE mice: Unknown gene","[5]; gene title and symbol Unknown, SLE fold 1.9",−1.7 fold
same,Number of genes down-regulated 2-fold or more in diseased mice that were up-regulated after treatment,[5]; of the 12 identified genes,9 (75%) genes
same,Number of genes up-regulated 2-fold or more in SLE-afflicted mice that were significantly down-regulated after treatment,[5]; of the 15 genes with an identified product,9 (60%) genes
same,Number of disease-altered genes affected by edratide and restored to levels similar to disease-free controls,[5]; of the 348 genes with altered expression in vehicle-treated diseased mice (22%),76 genes
same,"Anti dsDNA antibodies (OD), Dilution 1:10","[6]; serum dilution 1:10, mean ± spread",1.46 ± 0.32 OD
same,"Anti dsDNA antibodies (OD), Dilution 1:250",[6]; serum dilution 1:250,0.48 ± 0.21 OD
same,Real-time RT-PCR expression of Tfpi and S100a8 transcripts,"[7]; genes down-regulated by the disease, FIG. 2B",up-regulated after edratide treatment to levels similar to those in the young controls
same,"Real-time RT-PCR expression of Tnfsf4, Il-5rα, Zbtb20 and Nid1 transcripts","[7]; genes up-regulated by the disease, FIG. 2A",reduced the expression of these genes to levels similar to those seen in the young mice

# Source: US20100322928A1, “METHODS OF DIAGNOSING, MONITORING TREATMENT AND TREATING SYSTEMIC LUPUS ERYTHEMATOSUS (SLE)” (Yeda Research and Development Co., Ltd., priority 2007, published 2010)
